Experimental data as given in ChEMBL document CHEMBL1201862, “PubChem BioAssay data set” (2004).
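Grown in 96-well plates, cells were treated for 48 hours with each compound at five concentrations. Insufficient inhibition: endpoint recorded as highest concentration tested. The concentration for 50% growth inhibition is given as GI50.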 Active and inactive are the calls of the source. Cut-off read from the data, not from the text of the source: active = GI50 up to about 1.1 µM and inactive = higher.

Legend:
Assay in all cases: NCI anticancer screen, dose series, 48 h
EKVX = system: EKVX
HCC 2998 = system: HCC 2998
HCT-116 = system: HCT-116
HOP-62 = system: HOP-62
HOP-92 = system: HOP-92
IGROV-1 = system: IGROV-1
K562 = system: K562
KM-20L2 = system: KM-20L2
M14 = system: M14
M19-MEL = system: M19-MEL
Malme-3M = system: Malme-3M
NCI-H226 = system: NCI-H226
RPMI-8226 = system: RPMI-8226
SK-MEL-5 = system: SK-MEL-5
SNB-78 = system: SNB-78
TK-10 = system: TK-10
UACC-62 = system: UACC-62
XF498 = system: XF498
OVCAR-3 = system: OVCAR-3

Compound	GI50 (EKVX)	GI50 (HCC 2998)	GI50 (HCT-116)	GI50 (HOP-62)	GI50 (HOP-92)	GI50 (IGROV-1)	GI50 (K562)	GI50 (KM-20L2)	GI50 (M14)	GI50 (M19-MEL)	GI50 (Malme-3M)	GI50 (NCI-H226)	GI50 (RPMI-8226)	GI50 (SK-MEL-5)	GI50 (SNB-78)	GI50 (TK-10)	GI50 (UACC-62)	GI50 (XF498)	GI50 (OVCAR-3)
Oc1cc(-c2ccccc2)nc2cc(Cl)ccc12	> 100 µM (inactive)	0.897 µM (active)	0.339 µM (active)	1.31 µM (inactive)	0.376 µM (active)	0.54 µM (active)	0.382 µM (active)	1.52 µM (inactive)	0.555 µM (active)	0.575 µM (active)	0.42 µM (active)	7.67 µM (inactive)	0.422 µM (active)	0.191 µM (active)	3.34 µM (inactive)	27.7 µM (inactive)	0.294 µM (active)	0.304 µM (active)	
O=C(CC1(O)C(=O)Nc2c(Cl)ccc(Cl)c21)c1ccc(Cl)cc1Cl (stereo not drawn)	21.6 µM (inactive)	15.7 µM (inactive)	19.1 µM (inactive)	24 µM (inactive)	21 µM (inactive)	18.3 µM (inactive)		35.4 µM (inactive)	13.2 µM (inactive)	7.16 µM (inactive)	20.4 µM (inactive)	15.5 µM (inactive)	19.5 µM (inactive)		41.6 µM (inactive)	50.1 µM (inactive)	16.1 µM (inactive)	19.8 µM (inactive)	16.2 µM (inactive)
O=C(/N=C(/Nc1ccccc1)SCCS/C(=N\C(=O)c1ccccc1)Nc1ccccc1)c1ccccc1	> 100 µM (inactive)	34.9 µM (inactive)	46.8 µM (inactive)	86.5 µM (inactive)	16.8 µM (inactive)	> 100 µM (inactive)	43.6 µM (inactive)	68.9 µM (inactive)	60.5 µM (inactive)	63.5 µM (inactive)	> 100 µM (inactive)	66.5 µM (inactive)	48.2 µM (inactive)	48.3 µM (inactive)	> 100 µM (inactive)	> 100 µM (inactive)	52.2 µM (inactive)	36.9 µM (inactive)	67.9 µM (inactive)
CCOc1ccc(N(CC(=O)N2CC(=O)Nc3cc(C)c(C)cc32)C(C)=O)cc1	> 100 µM (inactive)	> 100 µM (inactive)	> 100 µM (inactive)	> 100 µM (inactive)	83.2 µM (inactive)		> 100 µM (inactive)	> 100 µM (inactive)	> 100 µM (inactive)	> 100 µM (inactive)	> 100 µM (inactive)	> 100 µM (inactive)	> 100 µM (inactive)	> 100 µM (inactive)	> 100 µM (inactive)	> 100 µM (inactive)	> 100 µM (inactive)	> 100 µM (inactive)	63.8 µM (inactive)
[O-][S+]1Cc2ccccc2CSS1 (stereo not drawn)	25.2 µM (inactive)	26.1 µM (inactive)	15 µM (inactive)		15.6 µM (inactive)	29.2 µM (inactive)	12.3 µM (inactive)	16.9 µM (inactive)	14 µM (inactive)	20.2 µM (inactive)	13 µM (inactive)	27.2 µM (inactive)	16.3 µM (inactive)	13.5 µM (inactive)	20 µM (inactive)	16.8 µM (inactive)	13 µM (inactive)	19.7 µM (inactive)	15.1 µM (inactive)
COC(=O)C1=CCS(=O)(=O)C1	> 100 µM (inactive)	> 100 µM (inactive)	> 100 µM (inactive)	> 100 µM (inactive)	> 100 µM (inactive)	> 100 µM (inactive)	> 100 µM (inactive)	> 100 µM (inactive)	> 100 µM (inactive)	> 100 µM (inactive)	> 100 µM (inactive)	> 100 µM (inactive)	> 100 µM (inactive)	5.16 µM (inactive)	> 100 µM (inactive)	> 100 µM (inactive)	> 100 µM (inactive)	> 100 µM (inactive)	> 100 µM (inactive)
CC(C)/C=C1\CCC(CN2CCCC2)C1=O (stereo not drawn)	20.8 µM (inactive)	19.5 µM (inactive)	8.97 µM (inactive)	> 87.5 µM (inactive)	17.5 µM (inactive)	25.7 µM (inactive)	2.69 µM (inactive)	18.5 µM (inactive)	10.9 µM (inactive)	24.1 µM (inactive)	6.28 µM (inactive)	20.9 µM (inactive)	0.472 µM (active)	17.1 µM (inactive)	21 µM (inactive)	10.7 µM (inactive)	20.6 µM (inactive)	16.6 µM (inactive)	17.4 µM (inactive)
O=C1C2C(C(=O)N1Cc1ccccc1)N(Cc1ccccc1)C(=O)N2Cc1ccccc1 (stereo not drawn)	> 100 µM (inactive)	> 100 µM (inactive)	> 100 µM (inactive)	> 100 µM (inactive)	> 100 µM (inactive)	> 100 µM (inactive)	> 100 µM (inactive)	> 100 µM (inactive)	> 100 µM (inactive)	> 100 µM (inactive)	> 100 µM (inactive)	> 100 µM (inactive)	> 100 µM (inactive)	> 100 µM (inactive)	> 100 µM (inactive)	> 100 µM (inactive)	> 100 µM (inactive)	> 100 µM (inactive)	> 100 µM (inactive)
COc1ccc(C2(CN(C)C)COc3cc(OC)c(OC)cc3C2=O)cc1OC (stereo not drawn)	> 100 µM (inactive)	> 100 µM (inactive)	16.3 µM (inactive)	> 100 µM (inactive)	79.3 µM (inactive)	> 100 µM (inactive)	31.6 µM (inactive)	> 100 µM (inactive)	89.3 µM (inactive)	66.8 µM (inactive)	> 100 µM (inactive)	84.9 µM (inactive)	23.5 µM (inactive)	24.1 µM (inactive)	41.3 µM (inactive)	63.5 µM (inactive)	38.7 µM (inactive)	30.1 µM (inactive)	86.7 µM (inactive)
CCCCC1(C(NC(=O)c2ccccc2Cl)c2ccncc2)C(=O)N(c2ccccc2)N(c2ccccc2)C1=O (stereo not drawn)	58.3 µM (inactive)	57.5 µM (inactive)	23.9 µM (inactive)	> 100 µM (inactive)	39.6 µM (inactive)	> 100 µM (inactive)	33.5 µM (inactive)	59.7 µM (inactive)	55.7 µM (inactive)	47.5 µM (inactive)	61 µM (inactive)	66.8 µM (inactive)	21.2 µM (inactive)	18.1 µM (inactive)	56.8 µM (inactive)	41 µM (inactive)	69.5 µM (inactive)	35.9 µM (inactive)	60 µM (inactive)
CO[C@H]1CC[C@]2(C)C3=CC[C@@]4(C)C(CC[C@@H]4C(C)CC[C@@H](C)C(C)C)C(=CCC2C1)O3 (stereo partly drawn)	> 25 µM (inactive)	> 25 µM (inactive)	> 25 µM (inactive)	> 25 µM (inactive)	> 22.7 µM (inactive)	> 25 µM (inactive)	> 25 µM (inactive)	> 25 µM (inactive)	> 25 µM (inactive)	> 25 µM (inactive)	> 25 µM (inactive)	> 16.5 µM (inactive)	> 25 µM (inactive)	> 25 µM (inactive)	> 25 µM (inactive)	> 25 µM (inactive)	> 25 µM (inactive)	> 25 µM (inactive)	> 25 µM (inactive)
O=C1Sc2ccccc2C(=O)N2CSCC12 (stereo not drawn)	> 100 µM (inactive)	> 100 µM (inactive)	> 100 µM (inactive)	> 100 µM (inactive)	> 100 µM (inactive)	> 100 µM (inactive)	> 100 µM (inactive)	> 100 µM (inactive)	> 100 µM (inactive)	> 100 µM (inactive)	> 100 µM (inactive)	> 100 µM (inactive)	> 100 µM (inactive)	> 100 µM (inactive)	> 100 µM (inactive)	> 100 µM (inactive)	> 100 µM (inactive)	> 100 µM (inactive)	> 100 µM (inactive)
